According to patent publication US4794103A, “Pharmaceutical compositions containing peptides of the cholecystokinin-cerulein group for the therapy of shock conditions and of respiratory and cardiocirculatory insufficiencies” (priority 1986, dated 1988):

Test system: female Wistar rats
Experiment: Hypovolemic shock produced by bleeding in anesthetized rats, intravenous bolus of the polypeptides
Format: in vivo, rat
Details: for MEAN ARTERIAL PRESSURE 15-30 min. After bleeding: mean ± S.E.
Method: Intact and adrenalectomized female Wistar rats (Nossan, Correzzano, Milano, Italy) weighing 250 to 300 g were used. Following anesthetization and heparinization a common carotid artery and an iliac vein were cannulated in rats. Arterial blood pressure was recorded by means of a pressure transducer (Statham P23 Db) connected to a polygraph (Battaglia-Rangoni, Bologna, Italy). […] Hypovolemic shock was produced by intermittently withdrawing blood from the venous catheter until mean arterial pressure fell to 10-25 mm Hg. […] Following bleeding and mean blood pressure stabilization in the range of 10-25 mm Hg, animals were given intravenous bolus of the polypeptides. Control animals were intravenously injected with the same volume of saline (0.1 ml/100 g).

Row | Substance | No. of deaths 120 min. after treatment (5 μg/kg i.v. after bleeding, 6 rats used (saline: 12 of 12 died)) | MEAN ARTERIAL PRESSURE 15-30 min. After bleeding (5 μg/kg i.v. after bleeding, 6 rats, before bleeding 71.17 ± 6.07, after bleeding 11.83 ± 0.79, P < 0.05 versus value after bleeding) [mm Hg] | No. of deaths 120 min. after treatment (10 μg/kg i.v. after bleeding, 5 rats used (saline: 12 of 12 died)) | MEAN ARTERIAL PRESSURE 15-30 min. After bleeding (10 μg/kg i.v. after bleeding, 5 rats, before bleeding 68.40 ± 4.98, after bleeding 14.00 ± 1.82, P < 0.01 versus value after bleeding) [mm Hg] | No. of deaths 120 min. after treatment (20 μg/kg i.v. after bleeding, 5 rats used (saline: 12 of 12 died)) | MEAN ARTERIAL PRESSURE 15-30 min. After bleeding (20 μg/kg i.v. after bleeding, 5 rats, before bleeding 72.00 ± 4.67, after bleeding 14.40 ± 0.87, P < 0.01 versus value after bleeding) [mm Hg] | No. of deaths 120 min. after treatment (20 μg/kg i.v. after bleeding, 6 rats used (saline: 12 of 12 died)) | MEAN ARTERIAL PRESSURE 15-30 min. After bleeding (20 μg/kg i.v. after bleeding, 6 rats, before bleeding 75.17 ± 6.62, after bleeding 12.17 ± 1.11, P < 0.01 versus value after bleeding) [mm Hg]
1 | CCK8 | 2 | 26.33 ± 7.05 | 0 | 41.80 ± 3.79 | 0 | 52.40 ± 2.73 | – | –
2 | cerulein | – | – | – | – | – | – | 0 | 54.67 ± 4.29
